# Patent US9394297B2, “Amides as pim inhibitors” (AMGEN INC., priority 2012, dated 2016)
# Where two headings read alike, the source gives them in different places.
# Experiments:
# Pim-1 = Pim-1 (Homo sapiens (Human), UniProt P11309); assay: Pim-Mn enzyme assay (HTRF, 384-well), Pim-1; format: biochemical; conditions: Pim-1 enzyme 5 pM, ATP 1.5 μM, BAD (S112) 0.5 μM, HTRF, 22-point curve; read-out: Pim-1-Mn IC50 IP
# Pim-2 = Pim-2 (Homo sapiens (Human), UniProt Q9P1W9); assay: Pim-Mn enzyme assay (HTRF, 384-well), Pim-2; format: biochemical; conditions: read-out: Pim-2-Mn IC50 IP
# [1] = Pim-2 enzyme 0.5 pM, ATP 1.5 μM, BAD (S112) 0.5 μM, HTRF, 22-point curve
# Chain of Pim-2 (Q9P1W9 whole entry): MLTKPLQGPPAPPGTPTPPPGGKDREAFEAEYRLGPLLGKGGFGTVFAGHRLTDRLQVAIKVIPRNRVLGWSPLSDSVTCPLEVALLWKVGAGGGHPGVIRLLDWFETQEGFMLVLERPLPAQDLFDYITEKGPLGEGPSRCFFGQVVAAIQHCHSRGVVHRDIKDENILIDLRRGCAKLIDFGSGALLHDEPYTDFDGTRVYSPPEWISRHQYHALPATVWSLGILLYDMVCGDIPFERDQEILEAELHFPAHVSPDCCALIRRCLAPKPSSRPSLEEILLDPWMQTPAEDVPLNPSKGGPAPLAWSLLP
# Chain of Pim-1 (P11309 whole entry): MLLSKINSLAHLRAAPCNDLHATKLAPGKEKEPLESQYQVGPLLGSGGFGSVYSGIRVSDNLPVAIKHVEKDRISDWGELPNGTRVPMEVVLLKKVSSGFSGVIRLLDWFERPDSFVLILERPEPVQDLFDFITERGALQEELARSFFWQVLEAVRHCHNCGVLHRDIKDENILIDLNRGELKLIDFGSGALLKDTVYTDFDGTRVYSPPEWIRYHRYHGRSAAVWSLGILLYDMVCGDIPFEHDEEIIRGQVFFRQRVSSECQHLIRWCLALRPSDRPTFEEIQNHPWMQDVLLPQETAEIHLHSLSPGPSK
SMILES,IC50 (Pim-1),IC50 (Pim-2; [1]),IC50 (Pim-2)
"Cc1nc2cccc(-c3cc4c([nH]3)CCNC4=O)c2nc1N[C@H]1CC[C@H](O)CC1 [Example 206, 2-(3-((trans-4-hydroxycyclohexyl)amino)-2-methylquinoxalin-5-yl)-6,7-dihydro-1H-pyrrolo[3,2-c]pyridin-4(5H)-one]",2.7 nM,4 nM,
"Cc1nc2cccc(-c3cc4c([nH]3)CCNC4=O)c2nc1N[C@H]1CCN(C(=O)OC(C)(C)C)C1 [Example 49, (S)-tert-butyl-3-((3-methyl-8-(4-oxo-4,5,6,7-tetrahydro-1H-pyrrolo[3,2-c]pyridin-2-yl)quinoxalin-2-yl)amino)pyrrolidine-1-carboxylate]",47.2 nM,144 nM,
"CC(C)(C)Nc1nc2c(-c3cc4c([nH]3)CCNC4=O)cccc2nc1C(F)(F)F [Example 224, 2-(3-(tert-butylamino)-2-(trifluoromethyl)quinoxalin-5-yl)-6,7-dihydro-1H-pyrrolo[3,2-c]pyridin-4(5H)-one]",4.2 nM,2.8 nM,
"Cc1nc2cccc(-c3cc4c([nH]3)CCNC4=O)c2nc1N[C@@H](C)C(F)(F)F [Example 255, (S)-2-(2-methyl-3-((1,1,1-trifluoropropan-2-yl)amino)quinoxalin-5-yl)-6,7-dihydro-1H-pyrrolo[3,2-c]pyridin-4(5H)-one]",28.3 nM,27.2 nM,
"Cc1nc2cccc(-c3cc4c([nH]3)CCNC4=O)c2nc1OC1CCC1 [Example 151, 2-(3-cyclobutoxy-2-methylquinoxalin-5-yl)-6,7-dihydro-1H-pyrrolo[3,2-c]pyridin-4(5H)-one]",18.2 nM,12.3 nM,
"Cn1c(Nc2ccccc2)nc2c(-c3cc4c([nH]3)CCNC4=O)cccc2c1=O [Example 266, 3-methyl-8-(4-oxo-4,5,6,7-tetrahydro-1H-pyrrolo[3,2-c]pyridin-2-yl)-2-(phenylamino)quinazolin-4(3H)-one]",3.1 nM,2 nM,
"CC[C@H]1NC(=O)c2cc(-c3cccc4c(=O)n(C)c(NC(C)(C)C)nc34)[nH]c21 [Example 505, (R)-2-(tert-butylamino)-8-(6-ethyl-4-oxo-1,4,5,6-tetrahydropyrrolo[3,4-b]pyrrol-2-yl)-3-methylquinazolin-4(3H)-one]",0.8 nM,0.8 nM,
"Cc1nc2cccc(-c3cc4c([nH]3)CCNC4=O)c2nc1NC1CN(C(=O)OC(C)(C)C)C1 [Example 149, tert-butyl 3-((3-methyl-8-(4-oxo-4,5,6,7-tetrahydro-1H-pyrrolo[3,2-c]pyridin-2-yl)quinoxalin-2-yl)amino)azetidine-1-carboxylate]",20 nM,33 nM,
"C[C@H]1NC(=O)c2cc(-c3cccc4c(=O)n(CCCO)c(NC(C)(C)C)nc34)[nH]c21 [Example 500, 2-(tert-butylamino)-3-(3-hydroxypropyl)-8-((6R)-6-methyl-4-oxo-1,4,5,6-tetrahydropyrrolo[3,4-b]pyrrol-2-yl)-4(3H)-quinazolinone]",0.12 nM,0.11 nM,
"Cc1nc2cccc(-c3cc4c([nH]3)CCNC4=O)c2nc1N[C@H]1CC[C@H]1N (racemic) [Example 54, rac-2-(3-((cis-2-aminocyclobutyl)amino)-2-methyl-5-quinoxalinyl)-1,5,6,7-tetrahydro-4H-pyrrolo[3,2-c]pyridin-4-one]",1.3 nM,2.9 nM,
"CCCCNc1nc2c(-c3cc4c([nH]3)CCNC4=O)cccc2nc1C [Example 159, 2-(3-(butylamino)-2-methylquinoxalin-5-yl)-6,7-dihydro-1H-pyrrolo[3,2-c]pyridin-4(5H)-one]",3.1 nM,1.7 nM,
"Cc1nc2cccc(-c3cc4c([nH]3)CCNC4=O)c2nc1OCC(C)(C)C [Example 152, 2-(2-methyl-3-(neopentyloxy)quinoxalin-5-yl)-6,7-dihydro-1H-pyrrolo[3,2-c]pyridin-4(5H)-one]",54.2 nM,44.7 nM,
"Cc1nc2cccc(-c3cc4c(=O)[nH]cnc4[nH]3)c2nc1N [Example 262, 6-(3-amino-2-methylquinoxalin-5-yl)-3H-pyrrolo[2,3-d]pyrimidin-4(7H)-one]",18.9 nM,21 nM,
"Cc1nc2cccc(-c3cc4c([nH]3)CCNC4=O)c2nc1NC1CNC1 [Example 150, 2-(3-(azetidin-3-ylamino)-2-methylquinoxalin-5-yl)-6,7-dihydro-1H-pyrrolo[3,2-c]pyridin-4(5H)-one]",2 nM,5.9 nM,
"Cc1nc2cccc(-c3cc4c([nH]3)[C@@H](C)NC4=O)c2nc1N[C@H]1CCC[C@@H](NC(=O)[C@@H](CO)NC(=O)OC(C)(C)C)C1 [Example 491, tert-butyl((1R)-1-(hydroxymethyl)-2-(((1R,3S)-3-((3-methyl-8-((6R)-6-methyl-4-oxo-1,4,5,6-tetrahydropyrrolo[3,4-b]pyrrol-2-yl)-2-quinoxalinyl)amino)cyclohexyl)amino)-2-oxoethyl)carbamate]",20 nM,10 nM,
"C[C@H]1NC(=O)c2cc(-c3cccc4c(=O)n(CC(F)(F)F)c(NC(C)(C)C)nc34)[nH]c21 [Example 501, 2-(tert-butylamino)-8-((6R)-6-methyl-4-oxo-1,4,5,6-tetrahydropyrrolo[3,4-b]pyrrol-2-yl)-3-(2,2,2-trifluoroethyl)-4(3H)-quinazolinone]",0.16 nM,0.19 nM,
"Cc1nc2cccc(-c3cc4c([nH]3)CCNC4=O)c2nc1NC1(C(F)(F)F)CC1 [Example 258, 2-(2-methyl-3-((1-(trifluoromethyl)cyclopropyl)amino)quinoxalin-5-yl)-6,7-dihydro-1H-pyrrolo[3,2-c]pyridin-4(5H)-one]",0.694 nM,0.338 nM,
"C[C@H]1NC(=O)c2cc(-c3cccc4cnc(NC5(C)CC5)nc34)[nH]c21 [Example 499, (6R)-6-methyl-2-(2-((1-methylcyclopropyl)amino)-8-quinazolinyl)-5,6-dihydropyrrolo[3,4-b]pyrrol-4(1H)-one]",1 nM,1.6 nM,
"CSc1nc2c(-c3cc4c([nH]3)CCNC4=O)cccc2c(=O)n1C [Example 265, 3-methyl-2-(methylthio)-8-(4-oxo-4,5,6,7-tetrahydro-1H-pyrrolo[3,2-c]pyridin-2-yl)quinazolin-4(3H)-one]",25.2 nM,11.9 nM,
"CC(=O)N1CC[C@H](Nc2nc3c(-c4cc5c([nH]4)CCNC5=O)cccc3nc2C)C1 [Example 65, (S)-2-(3-((1-acetylpyrrolidin-3-yl)amino)-2-methylquinoxalin-5-yl)-6,7-dihydro-1H-pyrrolo[3,2-c]pyridin-4(5H)-one]",57.8 nM,,72.8 nM
"Cc1nc2cccc(-c3cc4c([nH]3)CCNC4=O)c2nc1OCCC(C)(C)N [Example 269, 2-(3-(3-amino-3-methylbutoxy)-2-methyl-5-quinoxalinyl)-1,5,6,7-tetrahydro-4H-pyrrolo[3,2-c]pyridin-4-one]",44.5 nM,65.3 nM,
"Cc1nc2cccc(-c3cc4c([nH]3)C(C)CNC4=O)c2nc1NC1CC1 (single isomer, unassigned) [Example 161, 2-(3-(cyclopropylamino)-2-methylquinoxalin-5-yl)-7-methyl-6,7-dihydro-1H-pyrrolo[3,2-c]pyridin-4(5H)-one]",0.8 nM,0.7 nM,
"C[C@H]1NC(=O)c2cc(-c3cccc4c(=O)n(C5CCOCC5)c(NC(C)(C)C)nc34)[nH]c21 [Example 514, (R)-2-(tert-butylamino)-8-(6-methyl-4-oxo-1,4,5,6-tetrahydropyrrolo[3,4-b]pyrrol-2-yl)-3-(tetrahydro-2H-pyran-4-yl)quinazolin-4(3H)-one]",0.287 nM,0.671 nM,
"CC[C@H]1NC(=O)c2cc(-c3cccc4c(=O)n(C5CC5)c(NC(C)(C)C)nc34)[nH]c21 [Example 511, (R)-2-(tert-butylamino)-3-cyclopropyl-8-(6-ethyl-4-oxo-1,4,5,6-tetrahydropyrrolo[3,4-b]pyrrol-2-yl)quinazolin-4(3H)-one]",1 nM,0.7 nM,
"CC(C)(C)Nc1nc2c(-c3cc4c([nH]3)CCNC4=O)cccc2nc1-c1ccccc1 [Example 438, 2-(3-(tert-Butylamino)-2-phenylquinoxalin-5-yl)-6,7-dihydro-1H-pyrrolo[3,2-c]pyridin-4(5H)-one]",3.1 nM,12 nM,
"Cc1nc2cccc(-c3cc4c([nH]3)CCNC4=O)c2nc1NC1CCNCC1 [Example 53, 2-(2-methyl-3-(4-piperidinylamino)-5-quinoxalinyl)-1,5,6,7-tetrahydro-4H-pyrrolo[3,2-c]pyridin-4-one]",0.6 nM,2.4 nM,
"Cc1nc2cccc(-c3cc4c([nH]3)CCNC4=O)c2nc1N[C@@H]1CCNC1 [Example 61, 2-(2-methyl-3-((3R)-3-pyrrolidinylamino)-5-quinoxalinyl)-1,5,6,7-tetrahydro-4H-pyrrolo[3,2-c]pyridin-4-one]",6.1 nM,26.4 nM,
"C[C@H]1NC(=O)c2cc(-c3cccc4c(=O)n(C5CC5)c(NC5(C)CCC5)nc34)[nH]c21 [Example 496, (R)-3-cyclopropyl-8-(6-methyl-4-oxo-1,4,5,6-tetrahydropyrrolo[3,4-b]pyrrol-2-yl)-2-((1-methylcyclobutyl)amino)quinazolin-4(3H)-one]",0.2 nM,0.2 nM,
"Cc1nc2cccc(-c3cc4c([nH]3)CCNC4=O)c2nc1N[C@H]1C[C@@H](O)C1 [Example 439, 2-(3-((cis-3-Hydroxycyclobutyl)amino)-2-methylquinoxalin-5-yl)-6,7-dihydro-1H-pyrrolo[3,2-c]pyridin-4(5H)-one]",2.5 nM,1.4 nM,
"CC#CCC1CNC(=O)c2cc(-c3cccc4nc(C)c(F)nc34)[nH]c21 (racemic) [Example 280, rac-7-(2-butyn-1-yl)-2-(3-fluoro-2-methyl-5-quinoxalinyl)-1,5,6,7-tetrahydro-4H-pyrrolo[3,2-c]pyridin-4-one]",838 nM,706 nM,
